Assay results reported in PubChem BioAssay (NCI).
≈ marks a conversion by molar mass, not a printed value.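 A five-concentration, 48-hour dose response in 96-well plates underlies each endpoint, interpolated linearly between surrounding concentrations. GI50 is the concentration that inhibits growth by half. At the TGI there is no net growth.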

Key:
Assay in all cases: DTP human tumour cell line panel, 48 h
SK-MEL-5 melanoma = system: SK-MEL-5 melanoma
BT-549 breast = system: BT-549 breast
U251 CNS = system: U251 CNS
MDA-MB-231 breast = system: MDA-MB-231 breast
HCT-116 colon = system: HCT-116 colon
OVCAR-5 ovarian = system: OVCAR-5 ovarian
OVCAR-8 ovarian = system: OVCAR-8 ovarian
PC-3 prostate = system: PC-3 prostate
CCRF-CEM leukemia = system: CCRF-CEM leukemia
MDA-MB-435 = system: MDA-MB-435
OVCAR-3 ovarian = system: OVCAR-3 ovarian
MCF7 breast = system: MCF7 breast
NCI-H226 lung = system: NCI-H226 lung
TK-10 renal = system: TK-10 renal
SF-539 CNS = system: SF-539 CNS
UO-31 renal = system: UO-31 renal
HOP-62 NSCLC = system: HOP-62 NSCLC
M14 melanoma = system: M14 melanoma
MALME-3M melanoma = system: MALME-3M melanoma
SK-MEL-2 melanoma = system: SK-MEL-2 melanoma
SF-268 CNS = system: SF-268 CNS
786-0 renal = system: 786-0 renal
SW-620 colon = system: SW-620 colon
CAKI-1 renal = system: CAKI-1 renal
SK-OV-3 ovarian = system: SK-OV-3 ovarian
SN12C renal = system: SN12C renal
RPMI-8226 leukemia = system: RPMI-8226 leukemia
UACC-257 melanoma = system: UACC-257 melanoma
KM12 colon = system: KM12 colon
NCI-H460 lung = system: NCI-H460 lung
SF-295 CNS = system: SF-295 CNS
UACC-62 melanoma = system: UACC-62 melanoma
ACHN renal = system: ACHN renal
SK-MEL-28 melanoma = system: SK-MEL-28 melanoma
NCI-H23 lung = system: NCI-H23 lung
HOP-92 NSCLC = system: HOP-92 NSCLC
A498 renal = system: A498 renal
COLO 205 colon = system: COLO 205 colon
MOLT-4 leukemia = system: MOLT-4 leukemia
SR leukemia = system: SR leukemia

c1ccc(CSCCNCCN(CCNCCSCc2ccccc2)CCNCCSCc2ccccc2)cc1 showed a GI50 (SK-MEL-5 melanoma) of 1.72 µM, a TGI (SK-MEL-5 melanoma) of 3.12 µM and a GI50 (BT-549 breast) of 1.8 µM. The TGI (BT-549 breast) was 3.22 µM, the GI50 (U251 CNS) was 1.52 µM and the TGI (U251 CNS) was 2.85 µM. It also gave a GI50 (MDA-MB-231 breast) of 1.56 µM, a TGI (MDA-MB-231 breast) of 2.94 µM and a GI50 (HCT-116 colon) of 0.183 µM. It also gave a TGI (HCT-116 colon) of 0.34 µM, a GI50 (OVCAR-5 ovarian) of 1.76 µM and a TGI (OVCAR-5 ovarian) of 3.19 µM. The GI50 (OVCAR-8 ovarian) was 1.57 µM, the TGI (OVCAR-8 ovarian) was 3.02 µM and the GI50 (PC-3 prostate) was 1.66 µM. It also gave a TGI (PC-3 prostate) of 3.21 µM, a GI50 (CCRF-CEM leukemia) of 1.54 µM and a TGI (CCRF-CEM leukemia) of 3.06 µM. The GI50 (MDA-MB-435) was 5.37 µM, the TGI (MDA-MB-435) was 18.9 µM and the GI50 (OVCAR-3 ovarian) was 4.23 µM. The TGI (OVCAR-3 ovarian) was 18.3 µM, the GI50 (MCF7 breast) was 0.363 µM and the TGI (MCF7 breast) was 0.803 µM. It also gave a GI50 (NCI-H226 lung) of 1.78 µM, a TGI (NCI-H226 lung) of 3.28 µM and a GI50 (TK-10 renal) of 1.59 µM. The TGI (TK-10 renal) was 2.94 µM, the GI50 (SF-539 CNS) was 2.14 µM and the TGI (SF-539 CNS) was 3.58 µM. For the same molecule, the GI50 (UO-31 renal) was 1.78 µM, the TGI (UO-31 renal) was 3.23 µM and the GI50 (HOP-62 NSCLC) was 1.49 µM. The TGI (HOP-62 NSCLC) was 2.83 µM, the GI50 (M14 melanoma) was 1.31 µM and the TGI (M14 melanoma) was 2.65 µM. It also gave a GI50 (MALME-3M melanoma) of 1.84 µM, a TGI (MALME-3M melanoma) of 3.41 µM and a GI50 (SK-MEL-2 melanoma) of 1.6 µM. It also gave a TGI (SK-MEL-2 melanoma) of 3.11 µM, a GI50 (SF-268 CNS) of 1.53 µM and a TGI (SF-268 CNS) of 2.96 µM. The GI50 (786-0 renal) was 1.53 µM, the TGI (786-0 renal) was 2.94 µM and the GI50 (SW-620 colon) was 1.78 µM. For the same molecule, the TGI (SW-620 colon) was 3.21 µM, the GI50 (CAKI-1 renal) was 3.35 µM and the TGI (CAKI-1 renal) was 14.3 µM. The GI50 (SK-OV-3 ovarian) was 1.94 µM, the TGI (SK-OV-3 ovarian) was 3.43 µM and the GI50 (SN12C renal) was 1.44 µM. The TGI (SN12C renal) was 2.77 µM, the GI50 (RPMI-8226 leukemia) was 0.337 µM and the TGI (RPMI-8226 leukemia) was 1.03 µM. For the same molecule, the GI50 (UACC-257 melanoma) was 1.77 µM, the TGI (UACC-257 melanoma) was 3.31 µM and the GI50 (KM12 colon) was 1.1 µM. The TGI (KM12 colon) was 2.41 µM, the GI50 (NCI-H460 lung) was 1.37 µM and the TGI (NCI-H460 lung) was 2.71 µM. The GI50 (SF-295 CNS) was 4.17 µM, the TGI (SF-295 CNS) was 20.5 µM and the GI50 (UACC-62 melanoma) was 1.77 µM. It also gave a TGI (UACC-62 melanoma) of 3.16 µM.

For CC(=O)O[C@H]1CC[C@]2(C)[C@H]3CC=C4[C@@H]5CC(C)(C)CC[C@]5(C(=O)NCCNCCNCCN)CC[C@@]4(C)[C@]3(C)CC[C@H]2C1(C)C, the GI50 (MDA-MB-231 breast) was 1.53 µM, the TGI (MDA-MB-231 breast) was 3.04 µM and the GI50 (OVCAR-5 ovarian) was 1.67 µM. The TGI (OVCAR-5 ovarian) was 3.13 µM, the GI50 (MDA-MB-435) was 1.67 µM and the TGI (MDA-MB-435) was 3.1 µM. For the same molecule, the GI50 (OVCAR-3 ovarian) was 1.76 µM, the TGI (OVCAR-3 ovarian) was 3.24 µM and the GI50 (NCI-H226 lung) was 2.18 µM. The TGI (NCI-H226 lung) was 4.99 µM, the GI50 (ACHN renal) was 1.75 µM and the TGI (ACHN renal) was 3.14 µM. For the same molecule, the GI50 (SK-MEL-28 melanoma) was 1.74 µM, the TGI (SK-MEL-28 melanoma) was 3.21 µM and the GI50 (SF-539 CNS) was 1.69 µM. For the same molecule, the TGI (SF-539 CNS) was 3.17 µM, the GI50 (SN12C renal) was 1.78 µM and the TGI (SN12C renal) was 3.37 µM. For the same molecule, the GI50 (NCI-H23 lung) was 1.8 µM, the TGI (NCI-H23 lung) was 3.57 µM and the GI50 (UACC-62 melanoma) was 1.74 µM. It also gave a TGI (UACC-62 melanoma) of 3.18 µM.

With N#Cc1cc2c(N)ncnc2nc1N1CCCC1 the GI50 (BT-549 breast) was 49.3 mg/L, the GI50 (HOP-92 NSCLC) was 57.2 mg/L (≈ 238 µM) and the GI50 (A498 renal) was 36.9 mg/L (≈ 154 µM). The GI50 (COLO 205 colon) was 83.6 mg/L (≈ 348 µM), the GI50 (UO-31 renal) was 45.7 mg/L and the GI50 (M14 melanoma) was 48.4 mg/L. The GI50 (MOLT-4 leukemia) was 85.2 mg/L (≈ 355 µM), the GI50 (SR leukemia) was 66.4 mg/L (≈ 276 µM) and the GI50 (SK-OV-3 ovarian) was 54.4 mg/L.
